Data from patent US6365593B2, “Methylxanthines in the diagnosis and treatment of autistic disorder” (Repligen Corporation, priority 2000, dated 2002).
“Also recorded” adds a separate entry of the source.

Key:
7-MX level in urine = assay: Double blind study: urinary 7-MX in autistic children after secretin or placebo; type: in vivo, human; conditions: groups 0 and 1, basal vs one week after secretin
Source text: The urine samples of a double blind study on the effects of secretin on autistic children were available for further investigation on the changes of 7-MX after secretin treatment. Participants were divided into two groups. One group received secretin first, then placebo, and the other group received placebo first, then secretin. Three samples were collected for each subject: (i) basal urine, (ii) one week after secretin, (iii) one week after placebo. The changes of 7-MX level are shown in FIG. 8 (changes of 7-MX levels in double blind group “0”) and FIG. 9 (changes of 7-MX in double blind group “1”) for the two groups of patients. […] Only one subject in group 1 was an exception, where the basal 7-MX level was 10 times higher than the average.

[1] = system: 7-MX levels in the first morning urine; assay: 7-MX levels in first morning urine of autistic subjects after secretin infusion (time course); type: in vivo, human
Procedure: Urine samples from individuals, e.g., children, suspected of having autistic disorder are collected in 50 ml polypropylene centrifuge tubes and stored at a temperature below freezing, e.g., at −20° C. The samples are later thawed and centrifuged before pre-purification by solid phase extraction using e.g., SEP-PAK™ columns. The following is a suitable protocol for SEP-PAK™ extraction of one urine sample:
Suitable HPLC conditions to detect and analyze the methylxanthines and xanthines in a urine sample are as follows:
Samples are normalized for urinary output and variations in dilution using a standard creatinine assay. A portion of each sample is assayed to determine the creatinine content. Each sample is then diluted with water to achieve a standard creatinine concentration of […] in 100 μl of the sample.
Once the urine samples are properly pretreated, the level of methylxanthine, e.g., 7-MX, or xanthine is determined. […]
Samples of urine from autistic and non-autistic subjects were collected and analyzed for the presence of various metabolites before and after secretin treatment. Urine samples were analyzed by HPLC with a 4.5×100 mm C18 column detected at 215 nm and 280 nm. […]
The 7-MX levels in the first morning urine of autistic subjects after secretin treatment were monitored. […]

[2] = system: symptoms of autistic disorder; conditions: individuals diagnosed with autistic disorder; cited from earlier work

Substance: secretin: a hormone shown to improve symptoms of autistic disorder; stimulates secretion of pancreatic bicarbonate fluid
- change of urinary 7-MX level one week after secretin (7-MX level in urine): increased or stayed at the same level, but did not decrease; also recorded: increased the excretion of 7-MX and other methylxanthines
- change of 7-MX level (HPLC peak RT5.5) in urine after secretin treatment ([1]; autistic children, first morning urine, after secretin infusion): increase in size after secretin treatment in some children; also recorded: increases during the first week after secretin infusion and then decreases; also recorded: increased, and then decreased after about one week
- dose dependence of urinary 7-MX level after secretin ([1]; one autistic child, first treatment about 4 μg, second about 15 μg secretin): a higher dose of secretin would lead to a higher level of 7-MX in the urine
- effect on symptoms of autistic disorder [2]: improve symptoms
